This assay concerns OPN. The assay is described as follows: OPN expression in primary bone marrow-derived macrophages (qICC, ELISA). Particulars: for increase in OPN production/expression (qICC): without Aβ, vs untreated MΦ^BM (FIG. 14D). Type of assay: cell-based, mouse. As for the experimental part:
For MΦ^BM cells, the cells in each well were lifted by 2 mM EDTA-PBS, collected in tubes, and centrifuged. Cell pellets were lysed and re-suspended in a cocktail of RIPA buffer supplemented with 1% protease inhibitors (Thermo Scientific), and stored at −80° C. until use.
To test amyloid-β phagocytosis by macrophage, in repeated experiments monocytes were isolated from the bone marrow of wild-type mice (n=18 mice) and differentiated into macro-phage by 7-day cultivation in complete RPMI-1640 medium (#21870; Life Technologies) with 10% serum and 20 ng/ml MCSF (#315-02; PeproTech). Bone marrow-derived macrophages (MΦBM) were generated from femurs and tibiae cultured for 6-7 days in complete RPMI 1640 medium (Life Technologies) with 10% FBS, 100 U/ml penicillin, 100 μg/ml streptomycin, 2 mM L-glutamine and 20 ng/ml MCSF (PeproTech). Primary cultures of macrophage were then plated at 1.2×10^5 cells per well (3-4 wells for each condition) in 24-well tissue-culture plates on glass cover-slips overnight. Next, macrophages were either treated with 30 μg/ml GA (Copaxone®; TEVA Neuroscience), Brefeldin A (BFA; Sigma, 1X), or 10 μM Minocycline (Sigma) for the duration of 1, 3, or 24 h, or not treated (control group). Before addition of fibrillar amyloid-β1-42, the cells were chilled in a 4° C. ice bath for 5 min; immediately after addition of the preformed fibrillar amyloid-β1-42 (100 nM), the plates were centrifuged at 515g in 25° C. followed by incubation at 37° C. for 30 or 60 min. The cells were then rinsed with amyloid-β-free medium to remove non-incorporated amyloid-β and later washed twice with PBS. Methanol (99.8%) at −20° C. for 20 min or 4% paraformaldehyde at room temperature for 12 min was used for fixation of the cells followed by repeated washes with PBS. For immunostaining, the cells were first stained using the mouse anti-human amyloid-β mAb clone 6E10 (1:100; SIG-39320; Covance), rat anti-CD68 mAb clone FA-11 (1:100; ab53444; Abcam), rat anti-CD36 mAb clone MF3 (1:200; ab80080; Abcam), rat anti-CD204 scavenger receptor type I/II (SCARA1) mAb (1:100; MCA1322; AbD Serotec), rabbit anti-CD163 pAb (1:100; orb13303; Biorbyt), and goat anti-MMP-9 pAb (1:100; AF909; R&D systems). Secondary polyclonal antibodies included donkey anti-mouse, anti-rat, anti-rabbit, and anti-goat conjugated with Cy2, Cy3 or Cy5 (1:200; Jackson ImmunoResearch Laboratories). The cells were mounted using ProLong® Gold with DAPI (Molecular Probes, Life Technologies). Several fields (minimum n=5 randomly selected per group) were obtained from each well using a Carl Zeiss Axio Imager Z1 ApoTome-equipped microscope (an average of 120 cells in each field). Images were obtained using the same exposure time in each occasion. The fluorescent signal and its total area were determined and quantified by the conversion of individual images to greyscale and standardizing to baseline using histogram-based thresholds with NIH ImageJ software. The ‘mean area per cell’ was a result of a numerical average of the individual cell's immunoreactive area per field. The ‘area/cell’ measures the total fluorescent signal (area) divided by the total number of cells (DAPI count) of the same field (image). For all experiments, the investigators were blinded to the treatment condition.
To investigate the impact of GA on OPN expression in macrophages, a series of in vitro studies using primary MΦ^BM was performed. BM was isolated from young WT donor mice, differentiated into mature macrophages, pretreated overnight with GA ([…]; GA-MΦ^BM) and exposed to pre-formed Aβ1-42 fibrils. […] Since MΦ^BM constitutively express and secrete OPN into the extracellular matrix, OPN production by inhibiting secretion with Brefeldin A (BFA) pretreatment was assessed (FIG. 14C). Indeed, newly generated OPN was trapped by BFA, increasing its intracellular accumulation. […] GA further elevated OPN production in BFA-pretreated MΦ^BM (FIG. 14C). […]

For the substance glatiramer acetate [GA], for the setting “FIG. 5D”, the “increase in OPN in GA-treated MΦ” value worked out at 2 fold. Besides, where the note is “GA pretreated, 100 nM fibrillar Aβ1-42 for 30 min, qICC and ELISA”, the “increase of OPN expression in MΦ^BM” value is 2.3-2.7 fold. Further, the “increased OPN levels in cell lysates (ELISA)” value is, setting by setting: (with BFA (FIG. 14E)) 1.4 fold; (without BFA (FIG. 14E)) 2.3 fold. Also, the “increase in OPN production/expression (qICC)” value (with BFA, GA overnight 30 µg/ml) amounted to 1.6 fold and the “increase in OPN production/expression (qICC)” value (without BFA, GA overnight) was found to be 2.5 fold.
